Measured values from BindingDB's records for doi:10.1021/jm060955d (Abbott Laboratories, 2006).

Legend:
Experiment in all cases: DPP Inhibition Assay
Conditions in all cases: pH 7.5; 22 °C
[1] = molecular target: Dipeptidyl peptidase 8 (Homo sapiens, UniProt Q6V1X1)
Procedure: (§1) For each concentration of inhibitor or DMSO control, the steady state rates were used to fit a rectangular hyperbola, from which Km and Vmax values were determined by nonlinear regression analysis. The ratio of the Km/Vmax vs inhibitor concentration was plotted and the negative X-intercept, as calculated by linear regression, was the competitive Ki.

[2] = molecular target: Dipeptidyl peptidase 4 (Homo sapiens, UniProt P27487)
Procedure: as §1

[3] = molecular target: Dipeptidyl peptidase 9 (Homo sapiens, UniProt Q86TI2)
Procedure: as §1

Chain of Dipeptidyl peptidase 4 (P27487 whole entry): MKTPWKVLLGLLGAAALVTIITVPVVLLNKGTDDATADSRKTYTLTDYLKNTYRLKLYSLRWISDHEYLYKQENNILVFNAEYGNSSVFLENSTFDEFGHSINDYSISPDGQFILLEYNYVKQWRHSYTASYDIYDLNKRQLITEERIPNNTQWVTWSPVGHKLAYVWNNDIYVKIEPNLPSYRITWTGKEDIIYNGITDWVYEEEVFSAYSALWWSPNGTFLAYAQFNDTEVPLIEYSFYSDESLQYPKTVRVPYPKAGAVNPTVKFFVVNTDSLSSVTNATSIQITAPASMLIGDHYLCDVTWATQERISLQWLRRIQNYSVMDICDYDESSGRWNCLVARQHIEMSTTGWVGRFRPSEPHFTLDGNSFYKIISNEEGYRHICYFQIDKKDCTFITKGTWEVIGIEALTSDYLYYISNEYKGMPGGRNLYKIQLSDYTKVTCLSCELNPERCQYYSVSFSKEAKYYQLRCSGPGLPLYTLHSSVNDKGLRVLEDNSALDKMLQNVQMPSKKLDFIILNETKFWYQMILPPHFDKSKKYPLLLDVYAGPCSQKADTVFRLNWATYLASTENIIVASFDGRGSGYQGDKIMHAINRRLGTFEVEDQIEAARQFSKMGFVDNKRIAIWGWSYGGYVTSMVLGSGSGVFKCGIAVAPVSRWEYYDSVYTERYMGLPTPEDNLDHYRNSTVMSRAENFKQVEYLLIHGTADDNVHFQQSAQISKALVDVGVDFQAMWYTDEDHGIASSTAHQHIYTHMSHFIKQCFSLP
Chain of Dipeptidyl peptidase 9 (Q86TI2 whole entry): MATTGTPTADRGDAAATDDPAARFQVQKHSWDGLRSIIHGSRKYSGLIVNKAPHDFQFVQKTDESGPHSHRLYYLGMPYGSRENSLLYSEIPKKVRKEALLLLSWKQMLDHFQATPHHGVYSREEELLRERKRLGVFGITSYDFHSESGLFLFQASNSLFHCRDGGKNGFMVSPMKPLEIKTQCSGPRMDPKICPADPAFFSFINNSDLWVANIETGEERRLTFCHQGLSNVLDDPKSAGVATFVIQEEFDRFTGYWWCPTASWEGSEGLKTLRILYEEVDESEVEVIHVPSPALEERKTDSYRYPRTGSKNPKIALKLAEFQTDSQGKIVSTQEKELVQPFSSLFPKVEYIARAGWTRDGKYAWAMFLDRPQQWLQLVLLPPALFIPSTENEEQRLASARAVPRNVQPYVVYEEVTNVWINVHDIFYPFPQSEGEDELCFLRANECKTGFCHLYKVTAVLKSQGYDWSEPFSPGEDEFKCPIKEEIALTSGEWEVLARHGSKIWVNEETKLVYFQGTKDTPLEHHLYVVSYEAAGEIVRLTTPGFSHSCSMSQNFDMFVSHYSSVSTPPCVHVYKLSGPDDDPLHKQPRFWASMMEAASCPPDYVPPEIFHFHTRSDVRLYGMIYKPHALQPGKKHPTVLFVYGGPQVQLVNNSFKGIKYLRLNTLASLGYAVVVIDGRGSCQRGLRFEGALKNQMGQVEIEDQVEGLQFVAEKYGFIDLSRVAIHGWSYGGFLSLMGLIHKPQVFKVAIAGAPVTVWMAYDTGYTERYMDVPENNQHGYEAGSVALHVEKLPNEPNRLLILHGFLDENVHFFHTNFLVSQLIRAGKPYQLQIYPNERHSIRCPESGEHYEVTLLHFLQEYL
Chain of Dipeptidyl peptidase 8 (Q6V1X1 whole entry): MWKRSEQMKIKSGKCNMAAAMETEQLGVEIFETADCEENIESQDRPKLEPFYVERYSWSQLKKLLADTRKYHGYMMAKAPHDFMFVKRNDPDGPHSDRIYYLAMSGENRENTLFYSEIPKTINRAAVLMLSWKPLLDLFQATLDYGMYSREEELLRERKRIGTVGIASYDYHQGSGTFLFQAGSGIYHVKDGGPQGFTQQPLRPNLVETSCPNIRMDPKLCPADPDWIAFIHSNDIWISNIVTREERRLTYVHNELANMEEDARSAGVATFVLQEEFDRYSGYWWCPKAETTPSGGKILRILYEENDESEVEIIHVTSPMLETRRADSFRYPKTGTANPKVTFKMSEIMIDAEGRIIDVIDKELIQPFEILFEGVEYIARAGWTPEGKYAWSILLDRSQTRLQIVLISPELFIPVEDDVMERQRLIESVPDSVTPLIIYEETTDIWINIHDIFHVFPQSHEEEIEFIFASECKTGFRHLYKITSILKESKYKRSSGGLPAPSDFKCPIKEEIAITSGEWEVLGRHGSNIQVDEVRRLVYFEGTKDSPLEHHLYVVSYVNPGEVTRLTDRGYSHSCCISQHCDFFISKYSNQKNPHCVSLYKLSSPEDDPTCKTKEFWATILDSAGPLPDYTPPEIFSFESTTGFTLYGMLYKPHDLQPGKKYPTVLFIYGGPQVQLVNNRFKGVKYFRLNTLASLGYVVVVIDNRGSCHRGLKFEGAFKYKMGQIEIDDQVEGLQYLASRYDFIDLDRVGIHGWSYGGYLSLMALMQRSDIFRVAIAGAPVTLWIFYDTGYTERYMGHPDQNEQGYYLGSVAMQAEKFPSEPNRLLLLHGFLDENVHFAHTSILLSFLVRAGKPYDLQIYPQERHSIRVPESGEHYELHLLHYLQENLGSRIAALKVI

Row | Structure (SMILES) | Ki [1] | Ki [2] | Ki [3]
1 | N[C@H]1CC(C(=O)N2CCn3c(nnc3C(F)(F)F)C2)=CC[C@@H]1c1cc(F)c(F)cc1F [(1S,6R)-3-{[3-(trifluoromethyl)-5H,6H,7H,8H-[1,2,4]triazolo[3,4-a]pyrazin-7-yl]carbonyl}-6-(2,4,5-trifluorophenyl)cyclohex-3-en-1-aminium; 2,2,2-trifluoroacetate] | > 30000 nM | 1.3 nM | 4000 nM
2 | N[C@H]1CC(c2ccccc2)=CC[C@@H]1c1ccccc1Cl [(1S,6R)-6-(2-chlorophenyl)-3-phenylcyclohex-3-en-1-aminium; 2,2,2-trifluoroacetate] |  | < 140 nM | 
